Test results taken from article PMC12670405, “Second-Generation AURKA-Targeting PROTACs: Structural Optimization toward in Vivo Degradation in Neuroblastoma” (Journal of Medicinal Chemistry, 2025).

Assays:
Experiment in all cases: KINOMEscan scanMAX
Format in all cases: binding
[1] = biological target: T1, ANKK1 (Homo sapiens, UniProt Q8NFD2); conditions: read-out: Percent Control
T1 construct: purchased Eurofins Discovery (DiscoverX KINOMEscan scanMAX)
Description: (§1) The kinome-wide binding assay was performed by Eurofins Discovery using the scanMAX screening platform. More information can be found on the Eurofins Discovery Web site.

[2] = biological target: T2, ASK1 (Homo sapiens, UniProt Q99683); conditions: read-out: Percent Control
T2 construct: purchased Eurofins Discovery (DiscoverX KINOMEscan scanMAX)
Description: as §1

[3] = biological target: T3, DCAMKL1 (Homo sapiens, UniProt O15075); conditions: read-out: Percent Control
T3 construct: purchased Eurofins Discovery (DiscoverX KINOMEscan scanMAX)
Description: as §1

[4] = system: EGFR(L747-T751del,Sins)
Description: as §1

[5] = biological target: T4, EIF2AK1 (Homo sapiens, UniProt Q9BQI3); conditions: read-out: Percent Control
T4 construct: purchased Eurofins Discovery (DiscoverX KINOMEscan scanMAX)
Description: as §1

[6] = biological target: T5, EPHA1 (Homo sapiens, UniProt P21709); conditions: read-out: Percent Control
T5 construct: purchased Eurofins Discovery (DiscoverX KINOMEscan scanMAX)
Description: as §1

[7] = biological target: T6, EPHA7 (Homo sapiens, UniProt Q15375); conditions: read-out: Percent Control
T6 construct: purchased Eurofins Discovery (DiscoverX KINOMEscan scanMAX)
Description: as §1

[8] = biological target: T7, GCN2(Kin.Dom.2,S808G) (Homo sapiens, UniProt Q9P2K8, S808G); conditions: read-out: Percent Control
T7 construct: GCN2(Kin.Dom.2,S808G); purchased Eurofins Discovery (DiscoverX KINOMEscan scanMAX)
Description: as §1

[9] = biological target: T8, GRK2 (Homo sapiens, UniProt P25098); conditions: read-out: Percent Control
T8 construct: purchased Eurofins Discovery (DiscoverX KINOMEscan scanMAX)
Description: as §1

[10] = biological target: T9, GRK4 (Homo sapiens, UniProt P32298); conditions: read-out: Percent Control
T9 construct: purchased Eurofins Discovery (DiscoverX KINOMEscan scanMAX)
Description: as §1

[11] = biological target: T10, KIT-autoinhibited (Homo sapiens, UniProt P10721); conditions: read-out: Percent Control
T10 construct: purchased Eurofins Discovery (DiscoverX KINOMEscan scanMAX)
Description: as §1

[12] = biological target: T11, LCK (Homo sapiens, UniProt P06239); conditions: read-out: Percent Control
T11 construct: purchased Eurofins Discovery (DiscoverX KINOMEscan scanMAX)
Description: as §1

[13] = biological target: T12, LTK (Homo sapiens, UniProt P29376); conditions: read-out: Percent Control
T12 construct: purchased Eurofins Discovery (DiscoverX KINOMEscan scanMAX)
Description: as §1

[14] = biological target: T13, MEK1 (Homo sapiens, UniProt Q02750); conditions: read-out: Percent Control
T13 construct: purchased Eurofins Discovery (DiscoverX KINOMEscan scanMAX)
Description: as §1

[15] = biological target: T14, MST3 (Homo sapiens, UniProt Q9Y6E0); conditions: read-out: Percent Control
T14 construct: purchased Eurofins Discovery (DiscoverX KINOMEscan scanMAX)
Description: as §1

[16] = biological target: T15, NEK1 (Homo sapiens, UniProt Q96PY6); conditions: read-out: Percent Control
T15 construct: purchased Eurofins Discovery (DiscoverX KINOMEscan scanMAX)
Description: as §1

[17] = biological target: T16, NEK7 (Homo sapiens, UniProt Q8TDX7); conditions: read-out: Percent Control
T16 construct: purchased Eurofins Discovery (DiscoverX KINOMEscan scanMAX)
Description: as §1

[18] = biological target: T17, PAK2 (Homo sapiens, UniProt Q13177); conditions: read-out: Percent Control
T17 construct: purchased Eurofins Discovery (DiscoverX KINOMEscan scanMAX)
Description: as §1

[19] = biological target: T18, PAK3 (Homo sapiens, UniProt O75914); conditions: read-out: Percent Control
T18 construct: purchased Eurofins Discovery (DiscoverX KINOMEscan scanMAX)
Description: as §1

[20] = biological target: T19, PHKG2 (Homo sapiens, UniProt P15735); conditions: read-out: Percent Control
T19 construct: purchased Eurofins Discovery (DiscoverX KINOMEscan scanMAX)
Description: as §1

[21] = biological target: T20, PIK3CA(H1047L) (Homo sapiens, UniProt P42336, H1047L); conditions: read-out: Percent Control
T20 construct: purchased Eurofins Discovery (DiscoverX KINOMEscan scanMAX)
Description: as §1

[22] = biological target: T21, PIK3CA(H1047Y) (Homo sapiens, UniProt P42336, H1047Y); conditions: read-out: Percent Control
T21 construct: purchased Eurofins Discovery (DiscoverX KINOMEscan scanMAX)
Description: as §1

[23] = biological target: T22, PIK3CG (Homo sapiens, UniProt P48736); conditions: read-out: Percent Control
T22 construct: purchased Eurofins Discovery (DiscoverX KINOMEscan scanMAX)
Description: as §1

[24] = biological target: T23, PRKCE (Homo sapiens, UniProt Q02156); conditions: read-out: Percent Control
T23 construct: purchased Eurofins Discovery (DiscoverX KINOMEscan scanMAX)
Description: as §1

[25] = biological target: T24, PRKCQ (Homo sapiens, UniProt Q04759); conditions: read-out: Percent Control
T24 construct: purchased Eurofins Discovery (DiscoverX KINOMEscan scanMAX)
Description: as §1

[26] = biological target: T25, RSK3(Kin.Dom.1-N-terminal) (Homo sapiens, UniProt Q15349); conditions: read-out: Percent Control
T25 construct: RSK3(Kin.Dom.1-N-terminal); purchased Eurofins Discovery (DiscoverX KINOMEscan scanMAX)
Description: as §1

[27] = biological target: T26, RSK4(Kin.Dom.1-N-terminal) (Homo sapiens, UniProt Q9UK32); conditions: read-out: Percent Control
T26 construct: RSK4(Kin.Dom.1-N-terminal); purchased Eurofins Discovery (DiscoverX KINOMEscan scanMAX)
Description: as §1

[28] = biological target: T27, SLK (Homo sapiens, UniProt Q9H2G2); conditions: read-out: Percent Control
T27 construct: purchased Eurofins Discovery (DiscoverX KINOMEscan scanMAX)
Description: as §1

[29] = biological target: T28, STK36 (Homo sapiens, UniProt Q9NRP7); conditions: read-out: Percent Control
T28 construct: purchased Eurofins Discovery (DiscoverX KINOMEscan scanMAX)
Description: as §1

[30] = biological target: T29, TYK2(JH1domain-catalytic) (Homo sapiens, UniProt P29597); conditions: read-out: Percent Control
T29 construct: TYK2(JH1domain-catalytic); purchased Eurofins Discovery (DiscoverX KINOMEscan scanMAX)
Description: as §1

[31] = biological target: T30, YANK3 (Homo sapiens, UniProt Q86UX6); conditions: read-out: Percent Control
T30 construct: purchased Eurofins Discovery (DiscoverX KINOMEscan scanMAX)
Description: as §1

[32] = biological target: T31, p38-beta (Homo sapiens, UniProt Q15759); conditions: read-out: Percent Control
T31 construct: purchased Eurofins Discovery (DiscoverX KINOMEscan scanMAX)
Description: as §1

T13 sequence (Q02750 whole entry): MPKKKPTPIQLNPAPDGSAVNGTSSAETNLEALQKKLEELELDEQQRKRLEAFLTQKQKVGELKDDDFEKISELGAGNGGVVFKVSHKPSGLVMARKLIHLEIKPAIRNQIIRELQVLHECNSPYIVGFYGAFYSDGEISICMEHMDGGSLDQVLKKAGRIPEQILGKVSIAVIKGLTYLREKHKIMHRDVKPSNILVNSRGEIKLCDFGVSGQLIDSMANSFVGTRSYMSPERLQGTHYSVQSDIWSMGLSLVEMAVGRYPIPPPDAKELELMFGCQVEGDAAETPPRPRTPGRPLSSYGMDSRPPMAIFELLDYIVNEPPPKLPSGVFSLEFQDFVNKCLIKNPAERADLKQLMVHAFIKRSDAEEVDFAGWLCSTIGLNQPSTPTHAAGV
T31 sequence (Q15759 whole entry): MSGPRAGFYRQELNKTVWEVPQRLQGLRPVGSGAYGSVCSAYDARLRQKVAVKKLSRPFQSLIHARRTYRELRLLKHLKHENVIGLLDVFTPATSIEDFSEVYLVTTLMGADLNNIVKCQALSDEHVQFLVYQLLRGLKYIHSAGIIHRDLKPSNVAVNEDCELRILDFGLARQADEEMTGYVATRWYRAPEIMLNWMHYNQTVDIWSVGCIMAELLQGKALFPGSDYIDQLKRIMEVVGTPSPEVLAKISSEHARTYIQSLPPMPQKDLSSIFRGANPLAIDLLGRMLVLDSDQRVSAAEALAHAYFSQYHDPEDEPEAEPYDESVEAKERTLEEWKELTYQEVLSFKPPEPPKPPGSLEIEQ
T17 sequence (Q13177 whole entry): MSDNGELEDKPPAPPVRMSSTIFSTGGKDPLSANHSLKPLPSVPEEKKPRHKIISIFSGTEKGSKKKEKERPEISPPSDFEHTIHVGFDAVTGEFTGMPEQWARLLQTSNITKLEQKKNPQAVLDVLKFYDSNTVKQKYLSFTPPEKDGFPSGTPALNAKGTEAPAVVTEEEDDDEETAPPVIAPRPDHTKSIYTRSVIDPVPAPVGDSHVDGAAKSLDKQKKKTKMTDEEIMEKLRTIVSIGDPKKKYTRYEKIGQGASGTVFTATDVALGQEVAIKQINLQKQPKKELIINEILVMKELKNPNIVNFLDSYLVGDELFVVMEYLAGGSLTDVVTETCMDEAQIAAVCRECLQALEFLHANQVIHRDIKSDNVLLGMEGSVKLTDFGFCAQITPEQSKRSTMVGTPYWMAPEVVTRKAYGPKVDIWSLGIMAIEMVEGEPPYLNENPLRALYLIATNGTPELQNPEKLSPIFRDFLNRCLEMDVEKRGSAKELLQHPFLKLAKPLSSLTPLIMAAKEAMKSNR
T7 sequence (Q9P2K8 590-1001 S808G limits assumed): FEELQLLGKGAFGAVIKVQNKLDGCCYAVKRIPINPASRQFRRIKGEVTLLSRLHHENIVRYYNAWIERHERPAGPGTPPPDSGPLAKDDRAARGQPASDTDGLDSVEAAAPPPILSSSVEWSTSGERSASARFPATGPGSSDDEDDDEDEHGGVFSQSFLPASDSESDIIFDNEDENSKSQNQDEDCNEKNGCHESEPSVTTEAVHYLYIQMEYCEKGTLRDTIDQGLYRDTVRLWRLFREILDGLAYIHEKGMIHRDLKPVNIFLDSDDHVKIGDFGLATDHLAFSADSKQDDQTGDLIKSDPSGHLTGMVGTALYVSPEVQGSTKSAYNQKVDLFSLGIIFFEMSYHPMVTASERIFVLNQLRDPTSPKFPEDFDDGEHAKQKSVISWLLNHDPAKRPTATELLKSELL
T22 sequence (P48736 whole entry): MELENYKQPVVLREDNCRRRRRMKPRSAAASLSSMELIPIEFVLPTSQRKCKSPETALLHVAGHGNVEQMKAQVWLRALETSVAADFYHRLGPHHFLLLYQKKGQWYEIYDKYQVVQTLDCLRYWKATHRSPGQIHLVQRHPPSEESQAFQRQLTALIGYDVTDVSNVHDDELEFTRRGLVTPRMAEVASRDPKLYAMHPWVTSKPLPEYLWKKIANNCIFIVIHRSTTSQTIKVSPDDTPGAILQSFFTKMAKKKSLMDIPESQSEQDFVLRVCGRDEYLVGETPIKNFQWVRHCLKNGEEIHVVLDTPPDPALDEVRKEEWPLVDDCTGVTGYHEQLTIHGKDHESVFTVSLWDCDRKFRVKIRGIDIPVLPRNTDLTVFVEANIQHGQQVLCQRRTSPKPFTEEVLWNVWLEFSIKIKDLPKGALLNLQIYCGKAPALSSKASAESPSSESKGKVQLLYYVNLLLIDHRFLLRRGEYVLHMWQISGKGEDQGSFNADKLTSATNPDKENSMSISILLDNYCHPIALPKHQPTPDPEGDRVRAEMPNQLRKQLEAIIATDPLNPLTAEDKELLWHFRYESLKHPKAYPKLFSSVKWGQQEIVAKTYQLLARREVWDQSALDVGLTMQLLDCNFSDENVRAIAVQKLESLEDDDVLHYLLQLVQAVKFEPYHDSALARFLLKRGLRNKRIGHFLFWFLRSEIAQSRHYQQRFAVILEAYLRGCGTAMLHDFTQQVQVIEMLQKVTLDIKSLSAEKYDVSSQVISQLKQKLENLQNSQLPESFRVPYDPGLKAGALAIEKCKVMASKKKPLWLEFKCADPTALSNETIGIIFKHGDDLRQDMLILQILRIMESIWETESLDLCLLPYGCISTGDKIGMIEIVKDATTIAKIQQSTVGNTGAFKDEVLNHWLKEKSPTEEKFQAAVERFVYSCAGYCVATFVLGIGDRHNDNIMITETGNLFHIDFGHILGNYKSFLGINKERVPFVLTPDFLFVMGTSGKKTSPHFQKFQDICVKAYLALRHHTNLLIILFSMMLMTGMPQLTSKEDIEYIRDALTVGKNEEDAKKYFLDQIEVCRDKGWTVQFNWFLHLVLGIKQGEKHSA
T5 sequence (P21709 26-976): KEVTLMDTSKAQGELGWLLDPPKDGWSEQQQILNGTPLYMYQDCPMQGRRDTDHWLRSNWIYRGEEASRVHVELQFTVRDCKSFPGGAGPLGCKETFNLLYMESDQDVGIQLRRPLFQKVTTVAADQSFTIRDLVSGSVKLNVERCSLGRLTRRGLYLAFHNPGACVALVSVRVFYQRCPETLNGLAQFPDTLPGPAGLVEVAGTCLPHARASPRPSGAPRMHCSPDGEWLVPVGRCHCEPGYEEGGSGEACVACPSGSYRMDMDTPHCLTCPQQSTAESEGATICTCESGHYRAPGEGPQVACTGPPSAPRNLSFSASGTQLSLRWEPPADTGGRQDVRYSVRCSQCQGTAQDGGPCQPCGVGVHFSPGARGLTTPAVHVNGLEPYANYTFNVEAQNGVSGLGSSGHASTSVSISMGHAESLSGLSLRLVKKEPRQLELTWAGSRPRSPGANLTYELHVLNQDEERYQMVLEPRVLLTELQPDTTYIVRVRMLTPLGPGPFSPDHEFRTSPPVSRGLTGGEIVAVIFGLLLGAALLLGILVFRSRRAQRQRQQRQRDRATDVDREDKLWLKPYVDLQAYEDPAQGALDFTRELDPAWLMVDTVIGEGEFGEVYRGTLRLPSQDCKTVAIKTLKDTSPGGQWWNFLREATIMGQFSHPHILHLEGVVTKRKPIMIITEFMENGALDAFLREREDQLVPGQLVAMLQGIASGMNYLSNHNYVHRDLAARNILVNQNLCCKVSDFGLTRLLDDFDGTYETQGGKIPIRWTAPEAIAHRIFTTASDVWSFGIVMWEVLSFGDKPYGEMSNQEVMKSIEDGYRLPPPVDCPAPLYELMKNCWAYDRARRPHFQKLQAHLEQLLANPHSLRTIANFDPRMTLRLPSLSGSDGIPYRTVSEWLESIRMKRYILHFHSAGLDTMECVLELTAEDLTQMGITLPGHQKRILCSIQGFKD
T20 sequence (P42336 whole entry H1047L): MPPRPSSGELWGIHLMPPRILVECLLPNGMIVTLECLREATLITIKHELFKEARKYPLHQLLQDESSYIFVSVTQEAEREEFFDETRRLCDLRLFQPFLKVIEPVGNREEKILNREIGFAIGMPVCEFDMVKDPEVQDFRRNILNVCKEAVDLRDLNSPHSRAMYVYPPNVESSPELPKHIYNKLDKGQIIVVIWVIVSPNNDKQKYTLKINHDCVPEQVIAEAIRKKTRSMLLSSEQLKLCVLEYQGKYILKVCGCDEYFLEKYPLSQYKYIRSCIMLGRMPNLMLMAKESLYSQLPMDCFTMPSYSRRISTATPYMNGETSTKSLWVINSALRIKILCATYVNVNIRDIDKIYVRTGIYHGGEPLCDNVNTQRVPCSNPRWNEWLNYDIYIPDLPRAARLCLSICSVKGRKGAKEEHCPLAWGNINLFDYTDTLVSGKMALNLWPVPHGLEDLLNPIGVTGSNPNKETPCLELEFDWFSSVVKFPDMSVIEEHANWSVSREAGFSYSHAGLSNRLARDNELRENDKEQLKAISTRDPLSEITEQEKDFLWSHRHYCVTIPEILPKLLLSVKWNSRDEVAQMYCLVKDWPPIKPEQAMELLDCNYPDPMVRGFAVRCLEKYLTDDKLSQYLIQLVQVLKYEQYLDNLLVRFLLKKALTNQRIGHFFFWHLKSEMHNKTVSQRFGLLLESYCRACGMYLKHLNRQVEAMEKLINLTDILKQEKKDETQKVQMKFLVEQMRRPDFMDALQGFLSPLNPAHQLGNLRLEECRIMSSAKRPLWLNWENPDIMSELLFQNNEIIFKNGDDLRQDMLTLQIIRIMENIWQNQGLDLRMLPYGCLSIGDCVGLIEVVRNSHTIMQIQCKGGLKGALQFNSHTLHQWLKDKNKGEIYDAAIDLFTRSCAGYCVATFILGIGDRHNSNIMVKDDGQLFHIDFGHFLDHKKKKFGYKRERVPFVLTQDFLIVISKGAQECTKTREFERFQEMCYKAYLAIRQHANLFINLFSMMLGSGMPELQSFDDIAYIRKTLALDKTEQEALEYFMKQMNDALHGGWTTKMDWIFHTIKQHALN
T21 sequence (P42336 whole entry H1047Y): as the sequence (P42336 whole entry H1047L) above, with L1047Y counted along it

Cc1cc(Nc2ccc(F)c(CC3(C(=O)N4CCC(F)(CN5CCN(c6ccc(N7CCC(=O)NC7=O)cn6)CC5)CC4)CCN(Cc4cccc(Cl)c4F)CC3)n2)n[nH]1 [SK5527]
remaining binding at 0.1 µM ([1]; 100 nM): 73%
remaining binding at 1 µM ([1]; 1000 nM): 71%
remaining binding at 0.1 µM ([2]; 100 nM): 91%
remaining binding at 1 µM ([2]; 1000 nM): 92%
remaining binding at 0.1 µM ([3]; 100 nM): 100%
remaining binding at 1 µM ([3]; 1000 nM): 88%
Percent Control ([4]; 100 nM): 83%
Percent Control ([4]; 1000 nM): 74%
remaining binding at 0.1 µM ([5]; 100 nM): 81%
remaining binding at 1 µM ([5]; 1000 nM): 70%
remaining binding at 0.1 µM ([6]; 100 nM): 67%
remaining binding at 1 µM ([6]; 1000 nM): 23%
remaining binding at 0.1 µM ([7]; 100 nM): 100%
remaining binding at 1 µM ([7]; 1000 nM): 82%
remaining binding at 0.1 µM ([8]; 100 nM): 98%
remaining binding at 1 µM ([8]; 1000 nM): 100%
remaining binding at 0.1 µM ([9]; 100 nM): 100%
remaining binding at 1 µM ([9]; 1000 nM): 100%
remaining binding at 0.1 µM ([10]; 100 nM): 96%
remaining binding at 1 µM ([10]; 1000 nM): 100%
remaining binding at 0.1 µM ([11]; 100 nM): 94%
remaining binding at 1 µM ([11]; 1000 nM): 84%
remaining binding at 0.1 µM ([12]; 100 nM): 82%
remaining binding at 1 µM ([12]; 1000 nM): 84%
remaining binding at 0.1 µM ([13]; 100 nM): 100%
remaining binding at 1 µM ([13]; 1000 nM): 100%
remaining binding at 0.1 µM ([14]; 100 nM): 76%
remaining binding at 1 µM ([14]; 1000 nM): 72%
remaining binding at 0.1 µM ([15]; 100 nM): 100%
remaining binding at 1 µM ([15]; 1000 nM): 100%
remaining binding at 0.1 µM ([16]; 100 nM): 100%
remaining binding at 1 µM ([16]; 1000 nM): 86%
remaining binding at 0.1 µM ([17]; 100 nM): 74%
remaining binding at 1 µM ([17]; 1000 nM): 73%
remaining binding at 0.1 µM ([18]; 100 nM): 100%
remaining binding at 1 µM ([18]; 1000 nM): 79%
remaining binding at 0.1 µM ([19]; 100 nM): 100%
remaining binding at 1 µM ([19]; 1000 nM): 100%
remaining binding at 0.1 µM ([20]; 100 nM): 95%
remaining binding at 1 µM ([20]; 1000 nM): 97%
remaining binding at 0.1 µM ([21]; 100 nM): 63%
remaining binding at 1 µM ([21]; 1000 nM): 100%
remaining binding at 0.1 µM ([22]; 100 nM): 95%
remaining binding at 1 µM ([22]; 1000 nM): 100%
remaining binding at 0.1 µM ([23]; 100 nM): 91%
remaining binding at 1 µM ([23]; 1000 nM): 94%
remaining binding at 0.1 µM ([24]; 100 nM): 100%
remaining binding at 1 µM ([24]; 1000 nM): 95%
remaining binding at 0.1 µM ([25]; 100 nM): 100%
remaining binding at 1 µM ([25]; 1000 nM): 94%
remaining binding at 0.1 µM ([26]; 100 nM): 100%
remaining binding at 1 µM ([26]; 1000 nM): 96%
remaining binding at 0.1 µM ([27]; 100 nM): 93%
remaining binding at 1 µM ([27]; 1000 nM): 79%
remaining binding at 0.1 µM ([28]; 100 nM): 95%
remaining binding at 1 µM ([28]; 1000 nM): 100%
remaining binding at 0.1 µM ([29]; 100 nM): 71%
remaining binding at 1 µM ([29]; 1000 nM): 94%
remaining binding at 0.1 µM ([30]; 100 nM): 79%
remaining binding at 1 µM ([30]; 1000 nM): 81%
remaining binding at 0.1 µM ([31]; 100 nM): 86%
remaining binding at 1 µM ([31]; 1000 nM): 80%
remaining binding at 0.1 µM ([32]; 100 nM): 100%
remaining binding at 1 µM ([32]; 1000 nM): 99%
